{"source": "patent US7138361B2", "about": "“Herbicidal heterocycles” (E. I. du Pont de Nemours and Company, priority 2000, dated 2006)", "format_in_all_cases": "in vivo", "key": {"[1]": {"test_system": "Surinam grass (Brachiaria decumbens)", "assay": "Test B postemergence", "procedure,_shortened": "(§1)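 Visual injury scores, 0 = no effect to 100 = complete control, assigned against controls after 13 to 15 days in the greenhouse. Compounds formulated in non-phytotoxic solvent plus surfactant and applied to soil after planting (pre) or onto foliage of 1- to 4-leaf plants (post).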"}, "[2]": {"test_system": "barnyardgrass (Echinochloa crus-galli)", "assay": "Test B postemergence", "procedure,_shortened": "as §1"}, "[3]": {"test_system": "blackgrass (Alopecurus myosuroides)", "assay": "Test B postemergence", "procedure,_shortened": "as §1"}, "[4]": {"test_system": "cocklebur (Xanthium strumarium)", "assay": "Test B postemergence", "procedure,_shortened": "as §1"}, "corn (Zea mays) [5]": {"test_system": "corn (Zea mays)", "assay": "Test B postemergence", "procedure,_shortened": "as §1"}, "[6]": {"test_system": "crabgrass (Digitaria sanguinalis)", "assay": "Test B postemergence", "procedure,_shortened": "as §1"}, "[7]": {"test_system": "giant foxtail (Setaria faberii)", "assay": "Test B postemergence", "procedure,_shortened": "as §1"}, "[8]": {"test_system": "lambsquarters (Chenopodium album)", "assay": "Test B postemergence", "procedure,_shortened": "as §1"}, "[9]": {"test_system": "morning glory (Ipomoea hederacea)", "assay": "Test B postemergence", "procedure,_shortened": "as §1"}, "[10]": {"test_system": "pigweed (Amaranthus retroflexus)", "assay": "Test B postemergence", "procedure,_shortened": "as §1"}, "[11]": {"test_system": "velvetleaf (Abutilon theophrasti)", "assay": "Test B postemergence", "procedure,_shortened": "as §1"}, "[12]": {"test_system": "wheat (Triticum aestivum)", "assay": "Test B postemergence", "procedure,_shortened": "as §1"}, "wild oat (Avena fatua)": {"test_system": "wild oat (Avena fatua)", "assay": "Test B postemergence", "procedure,_shortened": "as §1"}, "[13]": {"test_system": "Surinam grass (Brachiaria decumbens)", "assay": "Test B preemergence", "procedure,_shortened": "as §1"}, "[14]": {"test_system": "barnyardgrass (Echinochloa crus-galli)", "assay": "Test B preemergence", "procedure,_shortened": "as §1"}, "[15]": {"test_system": "cocklebur (Xanthium strumarium)", "assay": "Test B preemergence", "procedure,_shortened": "as §1"}, "corn (Zea mays) [16]": {"test_system": "corn (Zea mays)", "assay": "Test B preemergence", "procedure,_shortened": "as §1"}, "[17]": {"test_system": "crabgrass (Digitaria sanguinalis)", "assay": "Test B preemergence", "procedure,_shortened": "as §1"}, "[18]": {"test_system": "giant foxtail (Setaria faberii)", "assay": "Test B preemergence", "procedure,_shortened": "as §1"}, "[19]": {"test_system": "lambsquarters (Chenopodium album)", "assay": "Test B preemergence", "procedure,_shortened": "as §1"}, "[20]": {"test_system": "morning glory (Ipomoea hederacea)", "assay": "Test B preemergence", "procedure,_shortened": "as §1"}, "[21]": {"test_system": "pigweed (Amaranthus retroflexus)", "assay": "Test B preemergence", "procedure,_shortened": "as §1"}, "rice (Oryza saliva) [22]": {"test_system": "rice (Oryza saliva)", "assay": "Test B preemergence", "procedure,_shortened": "as §1"}, "[23]": {"test_system": "velvetleaf (Abutilon theophrasti)", "assay": "Test B preemergence", "procedure,_shortened": "as §1"}, "[24]": {"test_system": "barnyardgrass (Echinochloa crus-galli)", "assay": "Test C flooded paddy test", "conditions": "for Barnyardgrass plant response rating: Flooded Paddy, scale 0 to 100, 0 no effect, 100 complete control; for Plant response rating, Barnyardgrass: flooded paddy test, scale 0 to 100 (0 no effect, 100 complete control)", "procedure,_shortened": "(§2)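 Flooded paddy, 2-leaf stage at treatment. Readout: visual % control vs untreated, 0–100, at 12–14 d in greenhouse.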"}, "[25]": {"test_system": "duck salad (Heteranthera limosa)", "assay": "Test C flooded paddy test", "conditions": "for Ducksalad plant response rating: Flooded Paddy, scale 0 to 100, 0 no effect, 100 complete control; for Plant response rating, Ducksalad: flooded paddy test, scale 0 to 100 (0 no effect, 100 complete control)", "procedure,_shortened": "as §2"}, "rice (Oryza saliva) [26]": {"test_system": "rice (Oryza saliva)", "assay": "Test C flooded paddy test", "conditions": "for Rice plant response rating: Flooded Paddy, scale 0 to 100, 0 no effect, 100 complete control; for Plant response rating, Rice: flooded paddy test, scale 0 to 100 (0 no effect, 100 complete control)", "procedure,_shortened": "as §2"}, "[27]": {"test_system": "smallflower flatsedge (Cyperus difformis)", "assay": "Test C flooded paddy test", "conditions": "for Flatsedge plant response rating: Flooded Paddy, scale 0 to 100, 0 no effect, 100 complete control; for Plant response rating, Flatsedge: flooded paddy test, scale 0 to 100 (0 no effect, 100 complete control)", "procedure,_shortened": "as §2"}, "[28]": {"conditions": "Rate 125 g/ha, scale 0 to 100, 0 no effect, 100 complete control"}, "[29]": {"conditions": "Rate 500 g/ha, scale 0 to 100, 0 is no effect, 100 is complete control, 13 to 15 days"}, "[30]": {"conditions": "Preemergence, Rate 500 g/ha, scale 0 to 100, 0 no effect, 100 complete control"}, "[31]": {"conditions": "preemergence, Rate 125 g/ha, scale of 0 to 100 where 0 is no effect and 100 is complete control, 13 to 15 days"}}}
{"smiles": "Cc1cccc(N2CCC(n3ccc(C(C)(C)C)n3)C2=O)c1", "note": "(stereo not shown) [Compound 112]", "values": [{"measurement": "Plant response rating, Surinam grass", "setting": "[1]; [28]", "value": 0}, {"measurement": "Plant response rating, Surinam grass", "setting": "[1]; [29]", "value": 100}, {"measurement": "Plant response rating, Barnyardgrass", "setting": "[2]; [28]", "value": 0}, {"measurement": "Plant response rating, Barnyardgrass", "setting": "[2]; [29]", "value": 20}, {"measurement": "Plant response rating, Blackgrass", "setting": "[3]; [28]", "value": 0}, {"measurement": "Plant response rating, Blackgrass", "setting": "[3]; [29]", "value": 0}, {"measurement": "Plant response rating, Cocklebur", "setting": "[4]; [28]", "value": 0}, {"measurement": "Plant response rating, Cocklebur", "setting": "[4]; [29]", "value": 0}, {"measurement": "Plant response rating, Corn", "setting": "corn (Zea mays) [5]; [28]", "value": 0}, {"measurement": "Plant response rating, Corn", "setting": "corn (Zea mays) [5]; [29]", "value": 0}, {"measurement": "Plant response rating, Crabgrass", "setting": "[6]; [28]", "value": 30}, {"measurement": "Plant response rating, Crabgrass", "setting": "[6]; [29]", "value": 30}, {"measurement": "Plant response rating, Foxtail, Giant", "setting": "[7]; [28]", "value": 0}, {"measurement": "Plant response rating, Foxtail, Giant", "setting": "[7]; [29]", "value": 0}, {"measurement": "Plant response rating, Lambsquarters", "setting": "[8]; [28]", "value": 30}, {"measurement": "Plant response rating, Lambsquarters", "setting": "[8]; [29]", "value": 30}, {"measurement": "Plant response rating, Morningglory", "setting": "[9]; [28]", "value": 20}, {"measurement": "Plant response rating, Morningglory", "setting": "[9]; [29]", "value": 50}, {"measurement": "Plant response rating, Pigweed", "setting": "[10]; [28]", "value": 60}, {"measurement": "Plant response rating, Pigweed", "setting": "[10]; [29]", "value": 80}, {"measurement": "Plant response rating, Velvetleaf", "setting": "[11]; [28]", "value": 0}, {"measurement": "Plant response rating, Velvetleaf", "setting": "[11]; [29]", "value": 0}, {"measurement": "Plant response rating, Wheat", "setting": "[12]; [28]", "value": 40}, {"measurement": "Plant response rating, Wheat", "setting": "[12]; [29]", "value": 40}, {"measurement": "Plant response rating, Wild Oat", "setting": "wild oat (Avena fatua); [28]", "value": 30}, {"measurement": "Plant response rating, Wild Oat", "setting": "wild oat (Avena fatua); [29]", "value": 60}, {"measurement": "Plant response rating, Surinam grass", "setting": "[13]; [30]", "value": 30}, {"measurement": "Plant response rating, Surinam grass", "setting": "[13]; [31]", "value": 10}, {"measurement": "Plant response rating, Barnyardgrass", "setting": "[14]; [30]", "value": 100}, {"measurement": "Plant response rating, Barnyardgrass", "setting": "[14]; [31]", "value": 90}, {"measurement": "Plant response rating, Cocklebur", "setting": "[15]; [30]", "value": 0}, {"measurement": "Plant response rating, Cocklebur", "setting": "[15]; [31]", "value": 0}, {"measurement": "Plant response rating, Corn", "setting": "corn (Zea mays) [16]; [30]", "value": 30}, {"measurement": "Plant response rating, Corn", "setting": "corn (Zea mays) [16]; [31]", "value": 0}, {"measurement": "Plant response rating, Crabgrass", "setting": "[17]; [30]", "value": 100}, {"measurement": "Plant response rating, Crabgrass", "setting": "[17]; [31]", "value": 100}, {"measurement": "Plant response rating, Foxtail, Giant", "setting": "[18]; [30]", "value": 100}, {"measurement": "Plant response rating, Foxtail, Giant", "setting": "[18]; [31]", "value": 100}, {"measurement": "Plant response rating, Lambsquarters", "setting": "[19]; [30]", "value": 100}, {"measurement": "Plant response rating, Lambsquarters", "setting": "[19]; [31]", "value": 100}, {"measurement": "Plant response rating, Morningglory", "setting": "[20]; [30]", "value": 30}, {"measurement": "Plant response rating, Morningglory", "setting": "[20]; [31]", "value": 30}, {"measurement": "Plant response rating, Pigweed", "setting": "[21]; [30]", "value": 100}, {"measurement": "Plant response rating, Pigweed", "setting": "[21]; [31]", "value": 100}, {"measurement": "Plant response rating, Rice", "setting": "rice (Oryza saliva) [22]; [30]", "value": 100}, {"measurement": "Plant response rating, Rice", "setting": "rice (Oryza saliva) [22]; [31]", "value": 0}, {"measurement": "Plant response rating, Velvetleaf", "setting": "[23]; [30]", "value": 0}, {"measurement": "Plant response rating, Velvetleaf", "setting": "[23]; [31]", "value": 0}, {"measurement": "Barnyardgrass plant response rating", "setting": "[24]; Rate 250 g/ha", "value": 20}, {"measurement": "Barnyardgrass plant response rating", "setting": "[24]; Rate 500 g/ha", "value": 60}, {"measurement": "Plant response rating, Barnyardgrass", "setting": "[24]; Rate 62 g/ha", "value": 0}, {"measurement": "Plant response rating, Barnyardgrass", "setting": "[24]; Rate 125 g/ha", "value": 0}, {"measurement": "Ducksalad plant response rating", "setting": "[25]; Rate 250 g/ha", "value": 20}, {"measurement": "Ducksalad plant response rating", "setting": "[25]; Rate 500 g/ha", "value": 30}, {"measurement": "Plant response rating, Ducksalad", "setting": "[25]; Rate 62 g/ha", "value": 0}, {"measurement": "Plant response rating, Ducksalad", "setting": "[25]; Rate 125 g/ha", "value": 0}, {"measurement": "Rice plant response rating", "setting": "rice (Oryza saliva) [26]; Rate 250 g/ha", "value": 20}, {"measurement": "Rice plant response rating", "setting": "rice (Oryza saliva) [26]; Rate 500 g/ha", "value": 70}, {"measurement": "Plant response rating, Rice", "setting": "rice (Oryza saliva) [26]; Rate 62 g/ha", "value": 0}, {"measurement": "Plant response rating, Rice", "setting": "rice (Oryza saliva) [26]; Rate 125 g/ha", "value": 0}, {"measurement": "Flatsedge plant response rating", "setting": "[27]; Rate 250 g/ha", "value": 100}, {"measurement": "Flatsedge plant response rating", "setting": "[27]; Rate 500 g/ha", "value": 100}, {"measurement": "Plant response rating, Flatsedge", "setting": "[27]; Rate 62 g/ha", "value": 20}, {"measurement": "Plant response rating, Flatsedge", "setting": "[27]; Rate 125 g/ha", "value": 50}]}
